From patent US11098052B2, “4-azapodophylotoxins compounds” (Arizona Board of Regents on behalf of Arizona State …, priority 2016, dated 2021)
Values after ≈ are worked out from the molar mass of the structure shown. Like-named read-outs stand apart in the source and are kept apart here.

What was measured:
[1] = test system: P388 murine lymphocytic leukemia cell line; test: Murine P388 lymphocytic leukemia inhibitory activity; assay type: cell-based; conditions: Mus musculus
BXPC-3 (pancreas) = test: Human cancer cell growth inhibition, sulforhodamine B assay, BXPC-3; assay type: cell-based; conditions: read-out: Growth Inhibition of Human Cancer Cell Lines (GI50), BXPC-3
Description: (§1) Cancer Cell Line Procedures. The human cancer cell growth inhibition data were determined using the standard sulforhodamine B assay of the US National Cancer Institute as previously described.^35 In short, cells in a 5% fetal bovine serum/RPMI1640 medium were inoculated in 96-well plates and incubated for 24 h. Next, serial dilutions of the samples were added. After 48 h, the plates were fixed with trichloroacetic acid, stained with sulforhodamine B, and read with an automated microplate reader. A growth inhibition of 50% (GI50 or the drug concentration causing a 50% reduction in the net protein increase) was determined from optical density data employing Immunosoft® software.

MCF-7 (breast) = test: Human cancer cell growth inhibition, sulforhodamine B assay, MCF-7; assay type: cell-based; conditions: read-out: Growth Inhibition of Human Cancer Cell Lines (GI50), MCF-7
Description: as §1

SF-268 (CNS) = test: Human cancer cell growth inhibition, sulforhodamine B assay, SF-268; assay type: cell-based; conditions: read-out: Growth Inhibition of Human Cancer Cell Lines (GI50), SF-268
Description: as §1

NCI-H460 (lung) = test: Human cancer cell growth inhibition, sulforhodamine B assay, NCI-H460; assay type: cell-based; conditions: read-out: Growth Inhibition of Human Cancer Cell Lines (GI50), NCI-H460
Description: as §1

KM20L2 (colon) = test: Human cancer cell growth inhibition, sulforhodamine B assay, KM20L2; assay type: cell-based; conditions: read-out: Growth Inhibition of Human Cancer Cell Lines (GI50), KM20L2
Description: as §1

DU-145 (prostate) = test: Human cancer cell growth inhibition, sulforhodamine B assay, DU-145; assay type: cell-based; conditions: read-out: Growth Inhibition of Human Cancer Cell Lines (GI50), DU-145
Description: as §1

[2] = P388, read-out: Murine P388 Lymphocytic Leukemia Inhibitory Activity (ED50)

| Structure (SMILES) | IC50 [1, 2] [µg/mL] | GI50 (BXPC-3 (pancreas); BXPC-3, 48 h) [µg/mL] | GI50 (MCF-7 (breast); MCF7, 48 h) [µg/mL] | GI50 (SF-268 (CNS); SF-268, 48 h) [µg/mL] | GI50 (NCI-H460 (lung); NCI-H460, 48 h) [µg/mL] | GI50 (KM20L2 (colon); KM-20L2, 48 h) [µg/mL] | GI50 (DU-145 (prostate); DU-145, 48 h) [µg/mL] | melting point | IC50 ([1]; P388 cell line, read-out: Murine P388 Lymphocytic Leukemia Inhibitory Activity (ED50)) [µg/mL] | GI50 (BXPC-3 (pancreas); BXPC-3 pancreas, 48 h, sulforhodamine B) [µg/mL] | GI50 (MCF-7 (breast); MCF7, MCF-7 breast, 48 h, sulforhodamine B) [µg/mL] | GI50 (SF-268 (CNS); SF-268 CNS, 48 h, sulforhodamine B) [µg/mL] | GI50 (NCI-H460 (lung); NCI-H460 lung, 48 h, sulforhodamine B) [µg/mL] | GI50 (KM20L2 (colon); KM-20L2, KM20L2 colon, 48 h, sulforhodamine B) [µg/mL] | GI50 (DU-145 (prostate); DU-145 prostate, 48 h, sulforhodamine B) [µg/mL] |
| --- | --- | --- | --- | --- | --- | --- | --- | --- | --- | --- | --- | --- | --- | --- | --- |
| COc1cc(C2C3=C(COC3=O)N(C3CCC3)c3cc4c(cc32)OCO4)cc(OC)c1OC (centres unmarked) [Compound 17, 6,7-Methylenedioxy-4-(cyclobutyl)-9-(3,4,5-trimethoxyphenyl)-4,9-dihydro-3H-furo[3,4-b]quinolin-1-one] | 0.24 (≈ 0.532 µM) | 0.04 (≈ 0.0886 µM) | 0.026 (≈ 0.0576 µM) | 0.026 (≈ 0.0576 µM) | 0.028 (≈ 0.062 µM) | 0.032 (≈ 0.0709 µM) | 0.047 (≈ 0.104 µM) | 224 to 226 °C |  |  |  |  |  |  |  |
| COc1cc(C2C3=C(COC3=O)N(Cc3ccco3)c3cc4c(cc32)OCO4)cc(OC)c1O (centres unmarked) [Compound 32, 6,7-Methylenedioxy-4-(furan-2-ylmethyl)-9-(4-hydroxy-3,5-dimethoxy-phenyl)-4,9-dihydro-3H-furo[3,4-b]quinolin-1-one] | 0.89 (≈ 1.92 µM) | 1 (≈ 2.16 µM) | 0.054 (≈ 0.117 µM) | 0.061 (≈ 0.132 µM) | 0.24 (≈ 0.518 µM) |  | 0.39 (≈ 0.842 µM) |  |  |  |  |  |  |  |  |
| COc1cc(C2C3=C(COC3=O)Nc3cc(OC)c(OC)c(OC)c32)cc(OC)c1OC (centres unmarked) [Compound 15, 6,7,8-Trimethoxy-9-(3,4,5-trimethoxyphenyl)-4,9-dihydro-3H-furo[3,4-b]quinolin-1-one] | 1.3 (≈ 2.93 µM) | 5.6 (≈ 12.6 µM) | 1.7 (≈ 3.83 µM) | 3.6 (≈ 8.12 µM) | 3.6 (≈ 8.12 µM) |  | 3.3 (≈ 7.44 µM) | 137 to 139 °C |  |  |  |  |  |  |  |
| COc1cc(C2C3=C(COC3=O)N(CCCn3ccnc3)c3cc4c(cc32)OCO4)cc(OC)c1OC (centres unmarked) [Compound 28, 6,7-Methylenedioxy-4-(3-imidazol-1-yl-propyl)-9-(3,4,5-trimethoxyphenyl)-4,9-dihydro-3H-furo[3,4-b]quinolin-1-one] | 2 (≈ 3.96 µM) | 2.9 (≈ 5.74 µM) | 0.64 (≈ 1.27 µM) | 2.5 (≈ 4.95 µM) | 3 (≈ 5.93 µM) | 2.2 (≈ 4.35 µM) | 2.1 (≈ 4.15 µM) | 206 °C (dec.) |  |  |  |  |  |  |  |
| O=C1OCC2=C1C(c1cccc3c1OCO3)c1cc3c(cc1N2)OCO3 (centres unmarked) [Compound 15d, 6,7-Methylenedioxy-9-(2,3-methylenedioxyphenyl)-4,9-dihydro-3H-furo[3,4-b]quinolin-1-one] | 0.17 (≈ 0.484 µM) | 0.065 (≈ 0.185 µM) | 0.0039 (≈ 0.0111 µM) | 0.0089 (≈ 0.0253 µM) | 0.021 (≈ 0.0598 µM) |  | 0.041 (≈ 0.117 µM) | 324 to 327 °C |  |  |  |  |  |  |  |
| COc1ccc(C2C3=C(COC3=O)Nc3cc(OC)c(OC)c(OC)c32)cc1O (centres unmarked) [Compound 15c, 6,7,8-Trimethoxy-9-(3-hydroxy-4-methoxyphenyl)-4,9-dihydro-3H-furo[3,4-b]quinolin-1-one] | 0.78 (≈ 1.95 µM) | 6.5 (≈ 16.3 µM) | 7 (≈ 17.5 µM) | 7.3 (≈ 18.3 µM) | 10.1 (≈ 25.3 µM) |  | > 10 |  |  |  |  |  |  |  |  |
| COc1cc(C2C3=C(COC3=O)N(CCc3ccc(Cl)cc3)c3cc4c(cc32)OCO4)cc(OC)c1OC (centres unmarked) [Compound 26, 6,7-Methylenedioxy-4-[2-(4-chlorophenyl)-ethyl]-9-(3,4,5-trimethoxyphenyl)-4,9-dihydro-3H-furo[3,4-b]quinolin-1-one] | 2.6 (≈ 4.85 µM) | 0.54 (≈ 1.01 µM) | 0.34 (≈ 0.634 µM) | 0.35 (≈ 0.653 µM) | 0.3 (≈ 0.56 µM) | 0.37 (≈ 0.69 µM) | 0.31 (≈ 0.578 µM) | 170 to 173 °C |  |  |  |  |  |  |  |
| COc1cc(C2C3=C(COC3=O)Nc3cc(OC)c(OC)c(OC)c32)cc(Br)c1OC (centres unmarked) [Compound 15a, 6,7,8-Trimethoxy-9-(3-bromo-4,5-trimethoxyphenyl)-4,9-dihydro-3H-furo[3,4-b]quinolin-1-one] | 0.11 (≈ 0.223 µM) | 0.56 (≈ 1.14 µM) | 0.12 (≈ 0.244 µM) | 0.11 (≈ 0.223 µM) | 0.35 (≈ 0.711 µM) |  | 0.42 (≈ 0.853 µM) | 175 to 177 °C |  |  |  |  |  |  |  |
| COc1cc(C2C3=C(COC3=O)N(C)c3cc4c(cc32)OCO4)cc(OC)c1OC (centres unmarked) [Compound 16, 6,7-Methylenedioxy-4-methyl-9-(3,4,5-trimethoxyphenyl)-4,9-dihydro-3H-furo[3,4-b]quinolin-1-one] | 0.027 (≈ 0.0656 µM) | 0.049 (≈ 0.119 µM) | 0.034 (≈ 0.0826 µM) | 0.029 (≈ 0.0705 µM) | 0.032 (≈ 0.0778 µM) | 0.032 (≈ 0.0778 µM) | 0.026 (≈ 0.0632 µM) |  |  |  |  |  |  |  |  |
| COc1ccc(C2C3=C(COC3=O)Nc3cc(OC)c(OC)c(OC)c32)cc1O[Si](C)(C)C(C)(C)C (centres unmarked) |  |  |  |  |  |  |  | 169 to 171 °C |  |  |  |  |  |  |  |
| COc1cc(C2C3=C(COC3=O)N(CCc3ccc(F)cc3)c3cc4c(cc32)OCO4)cc(OC)c1O (centres unmarked) [Compound 31, 6,7-Methylenedioxy-4-[2-(4-fluorophenyl)-ethyl]-9-(4-hydroxy-3,5-dimethoxy-phenyl)-4,9-dihydro-3H-furo[3,4-b]quinolin-1-one] | 0.21 (≈ 0.415 µM) | 1.4 (≈ 2.77 µM) | 0.34 (≈ 0.673 µM) | 0.48 (≈ 0.95 µM) | 0.36 (≈ 0.712 µM) |  | 0.38 (≈ 0.752 µM) |  |  |  |  |  |  |  |  |
| COc1cc(C2C3=C(COC3=O)N(CCO)c3cc4c(cc32)OCO4)cc(OC)c1OC (centres unmarked) [Compound 13, 6,7-Methylenedioxy-4-(2-hydroxy-ethyl)-9-(3,4,5-trimethoxyphenyl)-4,9-dihydro-3H-furo[3,4-b]quinolin-1-one] |  |  |  |  |  |  |  |  | 2 (≈ 4.53 µM) | 0.6 (≈ 1.36 µM) | 0.37 (≈ 0.838 µM) | 0.41 (≈ 0.929 µM) | 0.58 (≈ 1.31 µM) | 0.52 (≈ 1.18 µM) | 1.3 (≈ 2.94 µM) |
| COc1cc(C2C3=C(COC3=O)N(C3CCCC3)c3cc4c(cc32)OCO4)cc(OC)c1O (centres unmarked) [Compound 30, 6,7-Methylenedioxy-4-(cyclopentyl)-9-(4-hydroxy-3,5-dimethoxy-phenyl)-4,9-dihydro-3H-furo[3,4-b]quinolin-1-one] | 30.3 (≈ 67.1 µM) | 0.53 (≈ 1.17 µM) | 0.32 (≈ 0.709 µM) | 0.39 (≈ 0.864 µM) | 0.33 (≈ 0.731 µM) | 2.1 (≈ 4.65 µM) | 0.41 (≈ 0.908 µM) |  |  |  |  |  |  |  |  |
| COc1cc(C2C3=C(COC3=O)Nc3cc4c(cc32)OCO4)cc(OC)c1O (centres unmarked) [Compound 29, 6,7-Methylenedioxy-9-(4-hydroxy-3,5-dimethoxy-phenyl)-4,9-dihydro-3H-furo[3,4-b]quinolin-1-one] | 0.028 (≈ 0.073 µM) | 0.028 (≈ 0.073 µM) | 0.025 (≈ 0.0652 µM) | 0.026 (≈ 0.0678 µM) | 0.027 (≈ 0.0704 µM) | 0.032 (≈ 0.0835 µM) | 0.033 (≈ 0.0861 µM) |  |  |  |  |  |  |  |  |
